In patent publication US7262185B2, “Benzazepine derivative, process for producing the same, and use” (Takeda Chemical Industries Ltd., priority 2001, dated 2007):

| SMILES | melting point |
| --- | --- |
| CCCCOCCOc1ccc(-c2ccc3c(c2)C=C(C(=O)Nc2ccc(C(O)c4c(OCCC)ccc[n+]4[O-])cc2)CCN3)cc1 (centres unmarked) [Compound 113, 7-[4-(2-butoxyethoxy)phenyl]-N-[4-[hydroxy(1-oxido-3-propoxypyridine-2-yl)methyl]phenyl]-2,3-dihydro-1H-1-benzazepine-4-carboxamide] | 148 to 149 °C |
| CCCCOCCOc1ccc(-c2ccc3c(c2)C=C(C(=O)Nc2ccc(CCCn4cnnc4)cc2)CCN3CCC)cc1 [Compound 64, 7-[4-(2-butoxyethoxy)phenyl]-1-propyl-N-[4-[3-(4H-1,2,4-triazol-4-yl)propyl]phenyl]-2,3-dihydro-1H-1-benzazepine-4-carboxamide] | 191 to 194 °C |
| CCCCOCCOc1ccc(-c2ccc3c(c2)C=C(C(=O)Nc2ccc(C(O)c4cccc[n+]4[O-])c(OC)c2)CCN3)cc1 (centres unmarked) [Compound 3, 7-[4-(2-butoxyethoxy)phenyl]-N-[4-[hydroxy(1-oxidopyridin-2-yl)methyl]-3-methoxyphenyl]-2,3-dihydro-1H-1-benzazepine-4-carboxamide] | 116 to 118 °C |
| CCCCOCCOc1ccc(-c2ccc3c(c2)C=C(C(=O)Nc2ccc([C@H](O)c4cccc[n+]4[O-])cc2)CCN3Cc2ccccc2)cc1 [Compound 90, 1-benzyl-7-[4-(2-butoxyethoxy)phenyl]-N-[4-[(S)-hydroxy(1-oxidopyridin-2-yl)methyl]phenyl]-2,3-dihydro-1H-1-benzazepine-4-carboxamide] | 89 to 93 °C |
| CCCCOCCOc1ccc(-c2ccc3c(c2)C=C(C(=O)Nc2ccc([S+]([O-])Cc4nncn4CCCC)cc2)CCN3CCC)cc1 (centres unmarked) [Compound 145, 7-[4-(2-butoxyethoxy)phenyl]-N-[4-(4-n-butyl-4H-1,2,4-triazol-3-ylmethylsulfinyl)phenyl]-1-propyl-2,3-dihydro-1H-benzazepine-4-carboxamide] | 157 to 160 °C |
| CCCCOCCOc1ccc(-c2ccc3c(c2)C=C(C(=O)Nc2ccc(SCc4nncn4CC(C)C)cc2)CCN3CCC)cc1 [Compound 32, 7-[4-(2-butoxyethoxy)phenyl]-N-[4-[(4-isobutyl-4H-1,2,4-triazol-3-yl)methylthio]phenyl]-1-propyl-2,3-dihydro-1H-1-benzazepine-4-carboxamide] | 130 to 132 °C |
| CCCCOCCOc1ccc(-c2ccc3c(c2)C=C(C(=O)Nc2ccc([C@H](O)c4cccc[n+]4[O-])cc2)CCN3Cc2nccs2)cc1 [Compound 86, 7-[4-(2-butoxyethoxy)phenyl]-N-[4-[(S)-hydroxy(1-oxidopyridin-2-yl)methyl]phenyl]-1-(thiazol-2-ylmethyl)-2,3-dihydro-1H-1-benzazepine-4-carboxamide] | 164 to 165 °C |
| CCCCOCCOc1ccc(-c2ccc3c(c2)C=C(C(=O)Nc2ccc(C(O)c4ccc(Cl)c[n+]4[O-])cc2)CCN3C(=O)C(F)(F)F)cc1 (centres unmarked) [Compound 108, 7-[4-(2-butoxyethoxy)phenyl]-N-[4-[hydroxy(5-chloro-1-oxidopyridin-2-yl)methyl]phenyl]-1-trifluoroacetyl-2,3-dihydro-1H-1-benzazepine-4-carboxamide] | 200 to 203 °C |
| CCCCOCCOc1ccc(-c2ccc3c(c2)C=C(C(=O)Nc2ccc([C@H](O)c4cccc[n+]4[O-])cc2)CCN3Cc2ccnn2C)cc1 [Compound 89, 7-[4-(2-butoxyethoxy)phenyl]-N-[4-[(S)-hydroxy(1-oxidopyridin-2-yl)methyl]phenyl]-1-(1-methylpyrazol-5-ylmethyl)-2,3-dihydro-1H-1-benzazepine-4-carboxamide] | 109 to 111 °C |
| CCCCOCCOc1ccc(-c2ccc3c(c2)C=C(C(=O)Nc2ccc(N(C)Cc4nncn4CCC)cc2)CCN3CCC)cc1 [Compound 151, 7-[4-(2-butoxyethoxy)phenyl]-N-[4-[methyl(4-propyl-4H-1,2,4-triazol-3-ylmethyl)amino]phenyl]-1-propyl-2,3-dihydro-1H-benzazepine-4-carboxamide] | 131 to 133 °C |
| CCCCOCCOc1ccc(-c2ccc3c(c2)C=C(C(=O)Nc2ccc(SCc4ncon4)cc2)CCN3CC(C)C)cc1 [Compound 128, 7-[4-(2-butoxyethoxy)phenyl]-1-isobutyl-N-[4-(1,2,4-oxadiazol-3-ylmethylthio)phenyl]-2,3-dihydro-1H-benzazepine-4-carboxamide] | 112 to 115 °C |
| CCCCOCCOc1ccc(-c2ccc3c(c2)C=C(C(=O)Nc2ccc(CC(=O)c4nccn4CCC)cc2)CCN3CC(C)C)cc1 [Compound 451, 7-[4-(2-butoxyethoxy)phenyl]-1-isobutyl-N-[4-(2-oxo-2-(1-propylimidazol-2-yl)ethyl)phenyl]-2,3-dihydro-1H-1-benzazepine-4-carboxamide] | 136.5 to 138 °C |
| CCCCOCCOc1ccc(-c2ccc3c(c2)C=C(C(=O)Nc2ccc(C(O)c4c(OCCC)ccc[n+]4[O-])cc2)CCN3C(=O)C(F)(F)F)cc1 (centres unmarked) [Compound 112, 7-[4-(2-butoxyethoxy)phenyl]-N-[4-[hydroxy(1-oxido-3-propoxypyridin-2-yl)methyl]phenyl]-1-trifluoroacetyl-2,3-dihydro-1H-1-benzazepine-4-carboxamide] | 144 to 146 °C |
| CCCCOCCOc1ccc(-c2ccc3c(c2)C=C(C(=O)Nc2ccc([S+]([O-])Cc4nncn4CC(C)C)cc2)CCN3CCC)cc1 (centres unmarked) [Compound 33, 7-[4-(2-butoxyethoxy)phenyl]-N-[4-((4-isobutyl-4H-1,2,4-triazol-3-yl)methylsulfinyl]phenyl]-1-propyl-2,3-dihydro-1H-1-benzazepine-4-carboxamide] | 186 to 190 °C (dec.) |
| CCCCOCCOc1ccc(-c2ccc3c(c2)C=C(C(=O)Nc2ccc([C@H](O)c4cccc[n+]4[O-])cc2)CCN3C=O)cc1 [Compound 77, 7-[4-(2-butoxyethoxy)phenyl]-1-formyl-N-[4-[(S)-hydroxy(1-oxidopyridin-2-yl)methyl]phenyl]-2,3-dihydro-1H-1-benzazepine-4-carboxamide] | 120 to 125 °C |
| CCCCOCCOc1ccc(-c2ccc3c(c2)C=C(C(=O)Nc2ccc([C@H](O)c4cccc[n+]4[O-])cc2)CCN3S(C)(=O)=O)cc1 [Compound 94, 7-[4-(2-butoxyethoxy)phenyl]-N-[4-[(S)-hydroxy(1-oxidopyridin-2-yl)methyl]phenyl]-1-methanesulfonyl-2,3-dihydro-1H-1-benzazepine-4-carboxamide] | 118 to 120 °C |
| CCCCOCCOc1ccc(-c2ccc3c(c2)C=C(C(=O)Nc2ccc(C(O)c4cc(C)cc[n+]4[O-])c(C(F)(F)F)c2)CCN3CCC)cc1 (centres unmarked) [Compound 17, 7-[4-(2-butoxyethoxy)phenyl]-N-[4-[hydroxy(4-methyl-1-oxidopyridin-2-yl)methyl]-3-trifluoromethylphenyl]-1-propyl-2,3-dihydro-1H-1-benzazepine-4-carboxamide] | 103 to 105 °C |
| CCCCOCCOc1ccc(-c2ccc3c(c2)C=C(C(=O)Nc2ccc([C@@H](O)c4cccc[n+]4[O-])cc2)CCN3C=O)cc1 [Compound 78, 7-[4-(2-butoxyethoxy)phenyl]-1-formyl-N-[4-[(R)-hydroxy(1-oxidopyridin-2-yl)methyl]phenyl]-2,3-dihydro-1H-1-benzazepine-4-carboxamide] | 104 to 106 °C |
| CCCCOCCOc1ccc(-c2ccc3c(c2)C=C(C(=O)Nc2ccc(C(O)c4cccc[n+]4[O-])c(C)c2)CCN3)cc1 (centres unmarked) [Compound 7, 7-[4-(2-butoxyethoxy)phenyl]-N-[4-[hydroxy(1-oxidopyridin-2-yl)methyl]-3-methylphenyl]-2,3-dihydro-1H-1-benzazepine-4-carboxamide] | 179 to 182 °C (dec.) |
| CCCCOCCOc1ccc(-c2ccc3c(c2)C=C(C(=O)Nc2ccc([C@H](O)c4cccc[n+]4[O-])cc2)CCN3CCC)cc1 [Compound 83, 7-[4-(2-butoxyethoxy)phenyl]-N-[4-[(S)-hydroxy(1-oxidopyridin-2-yl)methyl]phenyl]-1-propyl-2,3-dihydro-1H-1-benzazepine-4-carboxamide] | 87 to 89 °C |
| CCCCOCCOc1ccc(-c2ccc3c(c2)C=C(C(=O)Nc2ccc(C(O)c4cc(C)cc[n+]4[O-])c(OCC)c2)CCN3CC(C)C)cc1 (centres unmarked) [Compound 12, 7-[4-(2-butoxyethoxy)phenyl]-N-[3-ethoxy-4-[hydroxy(4-methyl-1-oxidopyridin-2-yl)methyl]phenyl]-1-isobutyl-2,3-dihydro-1H-1-benzazepine-4-carboxamide] | 108 to 110 °C |
| CCCCOCCOc1ccc(-c2ccc3c(c2)C=C(C(=O)Nc2ccc([S+]([O-])Cc4nccn4CCCC(=O)OCC)cc2)CCN3CC(C)C)cc1 (centres unmarked) [Compound 414, ethyl 4-[2-[[[4-[[[7-[4-(2-butoxyethoxy)phenyl]-1-isobutyl-2,3-dihydro-1H-1-benzazepine-4-yl]carbonyl]amino]phenyl]sulfinyl]methyl]-1H-imidazol-1-yl]butanoate] | 134 to 136 °C |
| CCCCOCCOc1ccc(-c2ccc3c(c2)C=C(C(=O)Nc2ccc([S+]([O-])CCn4cnnc4)cc2)CCN3CC(C)C)cc1 (centres unmarked) [Compound 155, 7-[4-(2-butoxyethoxy)phenyl]-N-[4-(4H-1,2,4-triazol-4-ylethylsulfinyl)phenyl]-1-isobutyl-2,3-dihydro-1H-benzazepine-4-carboxamide] | 168 to 170 °C |
| CCCCOCCOc1ccc(-c2ccc3c(c2)C=C(C(=O)Nc2ccc([S+]([O-])c4cccc5nccn45)cc2)CCN3CC(C)C)cc1 (centres unmarked) [Compound 169, 7-[4-(2-butoxyethoxy)phenyl]-1-isobutyl-N-[4-(imidazo[1,2-a]pyridin-5-ylsulfinyl)phenyl]-2,3-dihydro-1H-benzazepine-4-carboxamide] | 162 to 164 °C |
| CCCCOCCOc1ccc(-c2ccc3c(c2)C=C(C(=O)Nc2ccc([S+]([O-])Cc4nncn4CCC)nc2)CCN3CC(C)C)cc1 (centres unmarked) [Compound 54, 7-[4-(2-butoxyethoxy)phenyl]-1-isobutyl-N-[2-(4-propyl-4H-1,2,4-triazol-3-yl)methylsulfinylpyridin-5-yl]-2,3-dihydro-1H-1-benzazepine-4-carboxamide] | 135 to 138 °C |
| CCCCOCCOc1ccc(-c2ccc3c(c2)C=C(C(=O)Nc2ccc(OCc4nccn4CCC)cc2)CCN3CC(C)C)cc1 [Compound 25, 7-[4-(2-butoxyethoxy)phenyl]-1-isobutyl-N-[4-[(1-propylimidazole-2-yl)methoxy]phenyl]-2,3-dihydro-1H-1-benzazepine-4-carboxamide] | 118 to 120 °C |
